According to patent publication US9802897B2, “Amidopyridinol derivative or pharmaceutically acceptable salt thereof and pharmaceutical composition comprising same as active component” (Research Cooperation Foundation of Yeungnam University, priority 2013, dated 2017):
Read-outs that look alike come from different tables or passages of the source. Marks after values point to notes of the source that are not given here.

Tests used:
MDA-MB-231 cells = test: Transwell invasion assay of MDA-MB-231 breast cancer cells; type: cell-based; conditions: MDA-MB-231; for inhibition at 0.01 µM / inhibition at 0.1 µM / inhibition at 1 µM / inhibition at 10 µM: Homo sapiens, read-out: Inhibition rates of invasion of cancer cells (%)
Description: The invasion assay was performed by using the transwell insert (BD FALCON, Bedford, USA) equipped with a 8 μm pore-sized filter. An upper part of the transwell insert filter was coated with 20 μl of matrigel (1 mg/ml) while a bottom part of the same was coated with 30 μl of type I collagen (0.5 mg/ml). The MDA-MB-231 cells (5×10^5 cells/100 μl) were added to the insert chamber, and then, each inhibitor was also added thereto. To induce invasion of the cells, a medium supplemented with 5% FBS was added to each well of the bottom chamber to allow a reaction at a temperature of 37° C. in a cell incubator. 18 hours later, the cells remained after removing the solution in the insert chamber were removed by using a cotton swab, whereas cells at the bottom of the membrane were fixed with methanol and stained with hematoxylin and eosin. The cells present at the membrane were observed through a microscope, and the number of the cells was counted in the selected 5 fields at the resolution of 200×.
According to the same manner as in Experimental Example 7, inhibitory effects of the amidopyridinol derivatives synthesized in Examples above on invasion of breast cancer cells, e.g., MDA-MB-231, were reviewed. Here, to compare with, inhibitory effects of aminopyridinol derivatives, e.g., 6-amino-2,4,5-trimethylpyridine-3-ol (BJ-1101) and 6-diphenylamino-2,4,5-trimethylpyridine-3-ol (BJ-1201), on invasion of breast cancer cells, e.g., MDA-MB-231, were reviewed.

cathepsin S = test: RT-PCR of cathepsin S gene expression in MDA-MB-231 cells; type: cell-based; conditions: for effects for reducing expression of cathepsin S genes (in words): MDA-MB-231
Description: Each compound of the present invention was treated with breast cancer cells (1×10^5 cell/cm^2), e.g., MDA-MB-231, and then, cultured at a temperature of 37° C. for 24 hours in a cell incubator. Afterwards, a trizole reagent was used to extract the entire mRNA therefrom. 24 hours later, the culture medium was removed therefrom, 1 mL of the triazole reagent was added to each well, and then, the cell elusion was transferred to a 1.5 mL tube. After 200 μl of chloroform was added to each sample, the samples were subjected to centrifugation at a temperature of 4° C., at 12,000 g, for 15 minutes. 500 μl of the supernatant obtained therefrom was transferred to a new tube. After 500 μl of isopropylalcohol was added to each sample, the samples were subjected to centrifugation at a temperature of 4° C., at 12,000 g, for 15 minutes. The supernatant obtained therefrom was removed from each sample, and then, the samples were washed with 75% ethanol to clean mRNA while the precipitants were dried. Then, mRNA extracted therefrom was dissolved in RNase-free water, followed by being heated at a temperature of 55° C. for 10 minutes.
After the RNA quantification, the GoScript™ reverse transcription system (Promega Corporation, Madison, Wis., USA) was used to synthesize cDNA. Here, PCR was performed by using TaKaRa Taq™ (Takara bio Inc., Shiga, Japan), wherein a primer set of cathepsin S consists of a forward primer having SEQ ID NO: 1 (forward sequence: 5′-GCAGTGGCACAGTTGCATAA-3′) and a reverse primer having SEQ ID NO: 2 (reverse sequence: 5′-AGCACCACAAGAACCCATGT-3′). After the PCR product was subjected to agarose gel electrophoresis, the PCR product was stained with ethidium bromide (0.5 μg/ml), thereby obtaining images thereof by using the gel imaging system (UVP, Cambridge, UK). Here, the PCR product was quantified based on glyceraldehyde 3-phosphate dehydrogenase (GAPDH). A GAPDH primer used herein consists of a forward primer having SEQ ID NO: 3 (forward sequence: 5′-GGTGAAGGTCGGAGTCAACG-3′) and a reverse primer having SEQ ID NO: 4 (reverse sequence: 5′-CAAAGTTGTCATGGATGACC-3′).
Furthermore, to screen other amidopyridinol derivatives that inhibit metastasis of breast cancer cells, inhibitory effects on expression of cathepsin S genes were reviewed by treating 1 μM of each compound, in the same manner as in Experimental Example 9.

[1] = test system: VEGF-induced angiogenesis in chicken chorioallantoic membrane (CAM); test: CAM analysis of VEGF-induced angiogenesis; type: in vivo; conditions: VEGF (20 ng/CAM) + Compound (0.01 nmol/CAM), number of blood vessels after 3 days; for inhibition in vivo at 0.01 nmol/CAM: Gallus gallus, 72 h, read-out: Inhibitory rates (%)
Description: To confirm inhibitory effects on angiogenesis through in vivo experiments, the chorioallantoic membrane (CAM) analysis was carried out (refer to Nguyen M et al., Microvascular Res., 47, pp 31-40, 1994). A fertilized egg of a chicken was cultured in conditions maintaining a temperature of 37° C. and relative humidity of 55%. On the 10th day of the culturing, a first small hole was made on an air sac part using a hypodermic needle (Green Cross Medical Corp., Korea), and then, a second hole was made on a flat part of the fertilized egg to make a window thereon. Air was removed through the first hole, i.e., the air sac part, and accordingly, the CAM was separated from the shell of the fertilized egg. Then, a grinding wheel (Multipro 395JA, Dremel, Mexico) was used to cut the air sac part, thereby making a window thereon. Next, the whatman filter disk #1 (Whatman Company, USA) was treated with 3 mg/mL of cortisone acetate, dried, and then, wet by VEGF at a concentration of 20 ng/CAM. The filter disk was placed on blood vessels through the window, and then, compounds prepared according to Examples above were each dissolved in DMSO, diluted with PBS, and then, treated for each concentration. After 3 days of treating the compounds, the CAM part on which the filter disk was placed was isolated, and then, washed with PBS. The Stemi SV6 stereomicroscope (Carl Zeiss, Germany) and the Image-Pro Plus software (Media Cybernetics; Silver Spring, Md., USA) were used to capture images of the CAM part, so as to measure the number of the blood vessels and to analyze data obtained therefrom.

HT-29 cells / U937 cells = test: TNF-α-induced adhesion of HT-29 intestinal epithelial cells and U937 mononuclear cells; type: cell-based, human; conditions: 1 μM, pre-treated 1 hour, TNF-α 10 ng/ml; for inhibition at 1 µM: Homo sapiens, read-out: Inhibitory rates (%)
Description: HT-29 cells were cultured in a 24-well plate at a concentration of […] cells/cm^2, and meanwhile, amidopyridinol compounds 8a to 8z were pre-treated for 1 hour at each concentration in a serum-free medium supplemented only with 1% PS. Next, 10 ng/ml of TNF-α was treated therewith to allow a reaction at a temperature of 37° C. for 3 hours. After the completion of the reaction, the medium of the HT-29 cells was removed, and then, the HT-29 cells were washed with PBS once. Afterwards, U937 cells, which were treated and reacted with 10 μg/mL of BCECF-AM at a temperature of 37° C. for 30 minutes, were allowed to react with the HT-29 cells at temperature of 37° C. for 1 hour. Then, to remove U937 cells that were not adhered to the HT-29 cells, the reacted cells were washed with PBS twice. In terms of cell dissolution, 0.1% Triton X-100 in 0.1M Tris was allowed to react with the cells for 30 minutes at room temperature, and then, the cells were subjected to quantify by measuring fluorescence thereof using the Fluostar optima microplate reader (BMG Labtechnologies, Germany).

[2] = Homo sapiens, MDA-MB-231, 24 h, 1 μM, MDA-MB-231, 24 hours, RT-PCR, read-out: Inhibition rate of expression of cathepsin S (%)
[3] = Homo sapiens, MDA-MB-231, 24 h, screening, 1 μM of each compound, MDA-MB-231, RT-PCR, read-out: Inhibition rate of expression of cathepsin S (%)
[4] = screening, 1 μM of each compound, MDA-MB-231, RT-PCR

Row | Compound | inhibition at 0.01 µM (MDA-MB-231 cells) [%] | inhibition at 0.1 µM (MDA-MB-231 cells) [%] | inhibition at 1 µM (MDA-MB-231 cells) [%] | inhibition at 10 µM (MDA-MB-231 cells) [%] | inhibitory effects on invasion of breast cancer cells (in words) (MDA-MB-231 cells) | inhibition at 1 µM (cathepsin S; [2]) [%] | inhibition in vivo at 0.01 nmol/CAM [1] [%] | inhibition at 1 µM (HT-29 cells / U937 cells) [%] | inhibition at 1 µM (cathepsin S; [3]) [%] | other results
1 | Cc1nc(N)c(C)c(C)c1O [BJ-1101, 6-amino-2,4,5-trimethylpyridine-3-ol] | 0.45 ± 15.6 | 0 | 0.3 ± 31.8 | 1.73 ± 22.7 | no inhibitory effects on invasion of breast cancer cells | 3.3 ± 0.82 | – | – | – | effects for reducing expression of cathepsin S genes (in words) (cathepsin S): no effects for reducing expression of cathepsin S genes
2 | Cc1nc(N(c2ccccc2)c2ccccc2)c(C)c(C)c1O [BJ-1201, 6-diphenylamino-2,4,5-trimethylpyridine-3-ol] | 2.52 ± 18.7 | 0 | 1.78 ± 22.1 | 1.96 ± 6.78 | no inhibitory effects on invasion of breast cancer cells | 2.7 ± 0.12 | – | – | – | effects for reducing expression of cathepsin S genes (in words) (cathepsin S): no effects for reducing expression of cathepsin S genes
3 | Cc1nc(NC(=O)CCCCl)c(C)c(C)c1O [Compound 8c, N-(5-hydroxy-3,4,6-trimethylpyridine-2-yl)-4-chlorobutaneamide] | – | – | – | – | – | – | 70.2 ± 4.6 | 24.7 | 27 ± 1.33 | –
4 | Cc1nc(NC(=O)C(C)(C)C)c(C)c(C)c1O [Compound 8f, N-(5-hydroxy-3,4,6-trimethylpyridine-2-yl)pivalamide] | – | – | – | – | – | – | 73.2 ± 6.4 | 37.5 | 16.4 ± 0.12 | –
5 | Cc1nc(NC(=O)c2ccc(F)cc2)c(C)c(C)c1O [Compound 8l, N-(5-hydroxy-3,4,6-trimethylpyridine-2-yl)-4-fluorobenzamide] | 8.57 ± 21.5 | 11 ± 23.1 | 33 ± 4.37 | 49.6 ± 7.82 | showed inhibitory effects on invasion of breast cancer cells | 0 | 75.3 ± 6.3 | 13.7 | – | inhibition at 10 µM (cathepsin S; Homo sapiens, MDA-MB-231, 24 h, 10 μM, MDA-MB-231, 24 hours, RT-PCR, read-out: Inhibition rate of expression of cathepsin S (%)): 12 ± 0.35%
6 | Cc1nc(NC(=O)c2ccc(C(C)(C)C)cc2)c(C)c(C)c1O [Compound 8n, N-(5-hydroxy-3,4,6-trimethylpyridine-2-yl)-4-(tert-butyl)benzamide] | – | – | – | – | – | – | 74.2 ± 7 | 22.5 | 8 ± 0.41 | –
7 | Cc1nc(NC(=O)c2cccc3ccccc23)c(C)c(C)c1O [Compound 8p, N-(5-hydroxy-3,4,6-trimethylpyridine-2-yl)-1-naphthamide] | – | – | – | – | – | – | 75.8 ± 5.4 | 64.9 | 44 ± 2.47 | –
8 | Cc1nc(NC(=O)c2cccs2)c(C)c(C)c1O [Compound 8q, N-(5-hydroxy-3,4,6-trimethylpyridine-2-yl)thiophene-2-carboxamide] | 47.6 ± 18.1 | 59 ± 10.4 | 65.8 ± 5.03 | 67.8 ± 4.25 | showed inhibitory effects on invasion of breast cancer cells | 57 ± 1.55 | 74.8 ± 13.2 | 68.4 | – | inhibition at 0.01 µM (cathepsin S; Homo sapiens, MDA-MB-231, 24 h, 0.01 μM, MDA-MB-231, 24 hours, RT-PCR, read-out: Inhibition rate of expression of cathepsin S (%)): 42 ± 1.21%; inhibition at 0.1 µM (cathepsin S; Homo sapiens, MDA-MB-231, 24 h, 0.1 μM, MDA-MB-231, 24 hours, RT-PCR, read-out: Inhibition rate of expression of cathepsin S (%)): 52 ± 1.68%; effects for reducing expression of cathepsin S genes (in words) (cathepsin S): the most effects for reducing expression of cathepsin S genes
9 | CCC(CC)C(=O)Nc1nc(C)c(O)c(C)c1C [Compound 8r, 2-ethyl-N-(5-hydroxy-3,4,6-trimethylpyridine-2-yl)butanamide] | – | – | – | – | – | – | – | 4.2 | 3.9 ± 0.22 | –
10 | CCC(C(=O)Nc1nc(C)c(O)c(C)c1C)c1ccccc1 (stereo not shown) [Compound 8t, N-(5-hydroxy-3,4,6-trimethylpyridine-2-yl)-2-phenyl butanamide] | – | – | – | – | – | – | – | – | – | Inhibitory rates (%) (HT-29 cells / U937 cells): 23.6* %; Inhibition rate of expression of cathepsin S (%) (cathepsin S; [4]): 8.2 ± 0.43%
11 | Cc1cc(C)c(C(=O)Nc2nc(C)c(O)c(C)c2C)c(C)c1 [Compound 8u, N-(5-hydroxy-3,4,6-trimethylpyridine-2-yl)-2,4,6-trimethylbenzamide] | – | – | – | – | – | – | – | 30.4 | 2.9 ± 0.08 | –
12 | N-(5-hydroxy-3,4,6-trimethylpyridine-2-yl)isobutyryl amide [Compound 8d] | – | – | – | – | – | – | – | – | – | Inhibitory rates (%) [1]: 53.2 ± 11.5 %; Inhibitory rates (%) (HT-29 cells / U937 cells): 52.3* %; Inhibition rate of expression of cathepsin S (%) (cathepsin S; [4]): 33 ± 1.23%
